Data reported in ChEMBL document CHEMBL1201862, “PubChem BioAssay data set” (2004).
The source made the active and inactive calls.

Tests used:
[1] = target: T1, Calpain-2 catalytic subunit (Sus scrofa, UniProt P43367); experiment: m-calpain protease blockers, concentration series – biochemical, fluorogenic peptide substrate, dose response (AID 1420); assay type: functional
T1 sequence (P43367 whole entry): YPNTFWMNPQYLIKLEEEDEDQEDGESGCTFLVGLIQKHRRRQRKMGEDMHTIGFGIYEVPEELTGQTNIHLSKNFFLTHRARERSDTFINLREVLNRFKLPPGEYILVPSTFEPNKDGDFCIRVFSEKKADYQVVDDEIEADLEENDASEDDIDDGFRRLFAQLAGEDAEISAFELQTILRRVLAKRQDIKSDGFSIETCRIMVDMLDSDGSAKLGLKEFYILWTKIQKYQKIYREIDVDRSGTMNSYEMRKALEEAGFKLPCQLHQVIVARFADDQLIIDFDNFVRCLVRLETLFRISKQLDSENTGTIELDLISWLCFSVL

Aminopeptidase N = target: T2, Aminopeptidase N (Plasmodium falciparum FcB1/Columbia, UniProt O96935); experiment: malaria alanyl aminopeptidase activity blockers – biochemical, fluorogenic H-Leu-NHMec substrate, 1536-well (AID 1445); design: species or system Plasmodium falciparum 3D7, 3D7
T2 sequence (O96935 whole entry): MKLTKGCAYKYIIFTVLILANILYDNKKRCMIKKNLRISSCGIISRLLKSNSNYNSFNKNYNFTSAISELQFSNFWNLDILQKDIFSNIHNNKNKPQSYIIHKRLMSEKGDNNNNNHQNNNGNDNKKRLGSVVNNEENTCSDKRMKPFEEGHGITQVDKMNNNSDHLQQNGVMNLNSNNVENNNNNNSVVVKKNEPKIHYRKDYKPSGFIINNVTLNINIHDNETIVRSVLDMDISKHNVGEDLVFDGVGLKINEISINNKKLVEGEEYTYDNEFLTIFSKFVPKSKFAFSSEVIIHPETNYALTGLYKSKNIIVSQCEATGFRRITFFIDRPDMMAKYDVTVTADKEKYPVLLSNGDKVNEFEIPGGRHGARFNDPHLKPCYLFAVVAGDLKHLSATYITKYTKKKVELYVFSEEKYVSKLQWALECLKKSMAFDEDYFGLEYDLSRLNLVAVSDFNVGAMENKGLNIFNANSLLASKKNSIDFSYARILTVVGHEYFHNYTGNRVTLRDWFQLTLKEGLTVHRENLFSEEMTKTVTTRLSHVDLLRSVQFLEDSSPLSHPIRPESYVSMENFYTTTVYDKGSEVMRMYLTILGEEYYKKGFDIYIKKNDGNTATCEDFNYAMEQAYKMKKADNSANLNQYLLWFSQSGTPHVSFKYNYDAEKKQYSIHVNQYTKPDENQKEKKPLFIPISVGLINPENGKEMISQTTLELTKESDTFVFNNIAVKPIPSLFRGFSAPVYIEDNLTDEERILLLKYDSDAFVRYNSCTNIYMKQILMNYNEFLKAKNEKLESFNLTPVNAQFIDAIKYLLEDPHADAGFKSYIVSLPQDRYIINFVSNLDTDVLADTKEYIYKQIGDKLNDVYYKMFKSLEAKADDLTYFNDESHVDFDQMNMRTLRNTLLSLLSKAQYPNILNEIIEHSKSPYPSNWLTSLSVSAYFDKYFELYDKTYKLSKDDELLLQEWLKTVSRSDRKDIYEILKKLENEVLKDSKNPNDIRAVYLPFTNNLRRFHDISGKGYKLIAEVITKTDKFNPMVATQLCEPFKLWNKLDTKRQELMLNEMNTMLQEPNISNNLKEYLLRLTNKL

[2] = Luminescence Cell-Based Dose Retest to Confirm Inhibitors of Cancer Stem Cells. [Related pubchem assays (depositor defined):AID2717, AID2721]; assay type: functional; conditions: Homo sapiens
[3] = target: T3, Short transient receptor potential channel 4 (Mus musculus, UniProt Q9QUQ5); experiment: calcium entry via TRPC4 opening agents – cell-based, HEK293 TRPC4/mu-opioid, Fluo-4 calcium, dose response (AID 434937); assay type: functional
T3 sequence (Q9QUQ5 whole entry): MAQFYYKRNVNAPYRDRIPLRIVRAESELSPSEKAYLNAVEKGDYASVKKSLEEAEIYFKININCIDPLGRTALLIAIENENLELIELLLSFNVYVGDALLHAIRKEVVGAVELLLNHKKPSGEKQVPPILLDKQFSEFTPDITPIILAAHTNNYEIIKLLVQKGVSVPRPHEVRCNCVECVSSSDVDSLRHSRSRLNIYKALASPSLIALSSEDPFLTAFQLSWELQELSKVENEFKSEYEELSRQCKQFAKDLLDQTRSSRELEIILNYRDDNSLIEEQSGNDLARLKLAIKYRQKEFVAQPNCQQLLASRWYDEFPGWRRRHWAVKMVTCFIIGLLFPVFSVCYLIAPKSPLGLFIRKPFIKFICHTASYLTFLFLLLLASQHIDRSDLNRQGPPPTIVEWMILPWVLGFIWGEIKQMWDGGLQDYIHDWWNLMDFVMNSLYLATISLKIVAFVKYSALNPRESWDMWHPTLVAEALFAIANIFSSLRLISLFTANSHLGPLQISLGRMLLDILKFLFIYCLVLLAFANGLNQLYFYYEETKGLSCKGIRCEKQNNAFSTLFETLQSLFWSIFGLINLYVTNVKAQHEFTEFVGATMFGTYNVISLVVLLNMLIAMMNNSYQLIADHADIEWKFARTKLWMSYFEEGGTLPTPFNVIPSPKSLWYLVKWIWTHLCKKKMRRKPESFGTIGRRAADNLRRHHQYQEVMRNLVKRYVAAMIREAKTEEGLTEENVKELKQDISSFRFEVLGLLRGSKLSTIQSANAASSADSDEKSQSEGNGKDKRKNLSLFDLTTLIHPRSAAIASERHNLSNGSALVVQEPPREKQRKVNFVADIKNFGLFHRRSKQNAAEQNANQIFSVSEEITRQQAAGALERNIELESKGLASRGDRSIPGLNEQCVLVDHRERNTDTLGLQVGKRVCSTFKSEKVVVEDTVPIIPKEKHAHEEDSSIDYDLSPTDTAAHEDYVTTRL

[4] = Trypanosoma cruzi growth suppression in host cells – NIH3T3 host cells, beta-gal luminescence, confirmation (AID 2044); assay type: functional, cell-based;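 also: intracellular parasites grown in NIH/3T3 mouse fibroblasts as host cells; luminescent beta-galactosidase reporter signal from transgenic T. cruzi replicating inside host cells; inhibitors lower the luminescence signal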
[5] = NIH3T3 cell viability loss – ATP luminescence, mouse fibroblasts, counter-screen, dose response (AID 2010); assay type: functional, cell-based;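 also: cells exposed to compound for about 90 hours before reading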
Fatty acid synthase [6] = target: T4, Fatty acid synthase (Homo sapiens, UniProt P49327); experiment: inhibition of human FAS-TE enzyme activity – biochemical, endpoint fluorescence intensity, uHTS hits, dose response (AID 624327); assay type: functional;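 also: fluorescence from hydrolysis of an O-methyl fluorescein acyl ester substrate by the enzyme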
T4 sequence (P49327 whole entry): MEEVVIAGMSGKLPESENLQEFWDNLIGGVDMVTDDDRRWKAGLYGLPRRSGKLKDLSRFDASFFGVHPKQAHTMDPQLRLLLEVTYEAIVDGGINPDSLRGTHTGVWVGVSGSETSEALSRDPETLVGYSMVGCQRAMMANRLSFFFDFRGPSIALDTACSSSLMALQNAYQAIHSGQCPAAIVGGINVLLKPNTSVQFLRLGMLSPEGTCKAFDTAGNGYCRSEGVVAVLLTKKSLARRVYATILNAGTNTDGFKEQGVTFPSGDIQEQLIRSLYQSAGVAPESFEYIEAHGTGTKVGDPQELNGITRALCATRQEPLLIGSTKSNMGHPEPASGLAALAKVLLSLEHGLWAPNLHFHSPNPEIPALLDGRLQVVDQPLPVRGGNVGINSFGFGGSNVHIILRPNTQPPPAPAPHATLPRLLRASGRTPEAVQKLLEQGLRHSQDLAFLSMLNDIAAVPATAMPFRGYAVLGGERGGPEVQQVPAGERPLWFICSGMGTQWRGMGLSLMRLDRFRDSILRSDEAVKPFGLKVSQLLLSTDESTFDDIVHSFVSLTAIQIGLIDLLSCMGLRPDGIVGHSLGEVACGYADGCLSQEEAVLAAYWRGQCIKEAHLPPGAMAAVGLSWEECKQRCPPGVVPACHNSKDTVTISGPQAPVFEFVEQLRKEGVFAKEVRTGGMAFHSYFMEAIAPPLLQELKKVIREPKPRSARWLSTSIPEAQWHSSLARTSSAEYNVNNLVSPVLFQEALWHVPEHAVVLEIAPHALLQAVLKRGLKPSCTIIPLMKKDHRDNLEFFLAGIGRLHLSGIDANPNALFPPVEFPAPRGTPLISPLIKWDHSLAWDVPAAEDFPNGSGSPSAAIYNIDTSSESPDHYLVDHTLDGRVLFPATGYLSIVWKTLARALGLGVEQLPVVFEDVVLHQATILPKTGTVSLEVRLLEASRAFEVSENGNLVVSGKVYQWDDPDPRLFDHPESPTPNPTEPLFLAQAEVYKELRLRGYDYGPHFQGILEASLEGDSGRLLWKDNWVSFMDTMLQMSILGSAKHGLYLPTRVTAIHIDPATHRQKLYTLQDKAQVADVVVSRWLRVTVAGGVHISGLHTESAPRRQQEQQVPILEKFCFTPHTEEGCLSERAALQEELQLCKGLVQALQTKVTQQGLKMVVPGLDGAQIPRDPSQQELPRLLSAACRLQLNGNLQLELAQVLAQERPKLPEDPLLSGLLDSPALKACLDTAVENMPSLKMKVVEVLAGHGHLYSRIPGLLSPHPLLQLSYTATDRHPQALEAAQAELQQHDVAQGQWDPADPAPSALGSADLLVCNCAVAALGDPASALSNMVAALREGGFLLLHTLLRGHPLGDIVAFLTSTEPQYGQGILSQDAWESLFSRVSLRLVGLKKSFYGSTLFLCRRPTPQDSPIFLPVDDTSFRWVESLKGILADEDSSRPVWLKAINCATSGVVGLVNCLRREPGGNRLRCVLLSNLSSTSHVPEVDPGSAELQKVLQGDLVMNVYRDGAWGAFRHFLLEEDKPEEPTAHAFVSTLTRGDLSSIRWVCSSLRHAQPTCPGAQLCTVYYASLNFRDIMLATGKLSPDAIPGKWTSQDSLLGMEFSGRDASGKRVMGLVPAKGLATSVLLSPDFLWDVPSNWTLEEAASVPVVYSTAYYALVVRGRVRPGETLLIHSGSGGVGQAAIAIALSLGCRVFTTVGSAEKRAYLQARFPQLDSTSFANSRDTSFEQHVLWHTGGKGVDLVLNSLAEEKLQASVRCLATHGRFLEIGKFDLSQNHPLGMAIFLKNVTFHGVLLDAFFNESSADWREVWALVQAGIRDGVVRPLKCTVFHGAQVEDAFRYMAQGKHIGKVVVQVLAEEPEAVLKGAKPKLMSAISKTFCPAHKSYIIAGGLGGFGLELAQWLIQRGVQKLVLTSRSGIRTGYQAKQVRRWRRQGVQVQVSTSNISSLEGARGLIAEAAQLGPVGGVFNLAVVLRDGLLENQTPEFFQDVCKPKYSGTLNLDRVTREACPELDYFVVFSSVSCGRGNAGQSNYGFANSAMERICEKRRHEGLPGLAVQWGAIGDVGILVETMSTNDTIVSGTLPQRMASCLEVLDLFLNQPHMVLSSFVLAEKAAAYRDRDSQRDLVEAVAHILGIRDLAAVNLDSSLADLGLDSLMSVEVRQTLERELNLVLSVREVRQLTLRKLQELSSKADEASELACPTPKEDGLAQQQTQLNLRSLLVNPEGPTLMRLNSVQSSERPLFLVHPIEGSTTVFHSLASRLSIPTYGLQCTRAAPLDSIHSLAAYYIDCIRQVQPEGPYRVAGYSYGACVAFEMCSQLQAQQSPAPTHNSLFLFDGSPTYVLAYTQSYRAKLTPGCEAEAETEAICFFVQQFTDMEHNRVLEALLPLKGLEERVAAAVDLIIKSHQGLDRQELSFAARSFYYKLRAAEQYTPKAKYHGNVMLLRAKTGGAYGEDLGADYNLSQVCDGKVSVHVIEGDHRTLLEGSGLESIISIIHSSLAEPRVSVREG

Fatty acid synthase [7] = target: T4, Fatty acid synthase; experiment: inhibition of human FAS-TE enzyme activity – biochemical, kinetic fluorescence intensity, dose response (AID 624326); assay type: functional;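 also: rate of fluorescence rise from hydrolysis of a fluorogenic O-methyl fluorescein ester substrate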
[8] = blockers of HIV-1 envelope-mediated cell-cell fusion – cherry-pick, dose response (AID 652057); assay type: functional, cell-based
[9] = off-target signal loss in HeLa-CEM21 co-culture – HeLa F-luc CTL cells, cherry-picked, counter-screen for HIV-1 Env fusion inhibitor project, dose response (AID 652040); assay type: functional, cell-based;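 also: potency for signal decrease marking cytotoxic or nonspecific inhibition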
[10] = HIV-1 AD8 envelope cell-cell fusion blockers – cherry-pick, dose response (AID 652062); assay type: functional, cell-based;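 also: luciferase signal from cell-cell fusion driven by HIV-1 clade B AD8 Env; potency is for inhibitors of fusion seen as a drop in luminescence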
[11] = target: T5, RNA-binding protein pos-1 (Caenorhabditis elegans, UniProt G5EF15); experiment: disruptors of C. elegans POS-1 RNA interaction – biochemical, fluorescence polarization, dose response (AID 1964);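 also: purified POS-1 fused to maltose binding protein made in E. coli; potency of compounds blocking POS-1 binding to fluorescent RNA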
T5 sequence (G5EF15 whole entry): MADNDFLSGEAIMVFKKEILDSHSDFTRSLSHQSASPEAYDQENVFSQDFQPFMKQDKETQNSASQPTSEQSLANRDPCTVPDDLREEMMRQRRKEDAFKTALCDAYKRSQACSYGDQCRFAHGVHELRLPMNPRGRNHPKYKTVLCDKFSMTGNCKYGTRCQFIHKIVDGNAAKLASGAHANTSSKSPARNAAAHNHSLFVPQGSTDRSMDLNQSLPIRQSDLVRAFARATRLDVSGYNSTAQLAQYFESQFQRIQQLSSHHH

[12] = target: T6, Zinc finger protein mex-5 (Caenorhabditis elegans, UniProt Q9XUB2); experiment: potency of MEX-5 RNA-binding blockers – biochemical, C. elegans, fluorescence polarization, dose response (AID 1960)
T6 sequence (Q9XUB2 whole entry): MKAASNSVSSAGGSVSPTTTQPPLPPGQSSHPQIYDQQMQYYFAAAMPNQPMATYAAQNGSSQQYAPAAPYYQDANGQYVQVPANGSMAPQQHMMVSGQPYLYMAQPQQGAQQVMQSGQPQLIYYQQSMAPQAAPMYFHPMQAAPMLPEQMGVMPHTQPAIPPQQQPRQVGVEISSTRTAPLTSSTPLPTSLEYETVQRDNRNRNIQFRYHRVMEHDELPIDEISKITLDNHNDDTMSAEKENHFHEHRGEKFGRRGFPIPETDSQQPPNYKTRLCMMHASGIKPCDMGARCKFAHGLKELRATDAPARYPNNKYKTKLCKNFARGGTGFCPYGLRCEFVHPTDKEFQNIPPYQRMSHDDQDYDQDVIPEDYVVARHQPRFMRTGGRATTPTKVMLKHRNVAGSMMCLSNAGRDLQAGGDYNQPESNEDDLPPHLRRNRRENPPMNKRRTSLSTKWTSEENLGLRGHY

Genome polyprotein = Genome polyprotein (dengue virus type 2, UniProt P29990); experiment: flavivirus cap methylation enzyme inhibition – biochemical, confirmation dose response, primary screen (AID 588689); assay type: functional
Chain of Genome polyprotein (P29990 2492-3391 limits assumed): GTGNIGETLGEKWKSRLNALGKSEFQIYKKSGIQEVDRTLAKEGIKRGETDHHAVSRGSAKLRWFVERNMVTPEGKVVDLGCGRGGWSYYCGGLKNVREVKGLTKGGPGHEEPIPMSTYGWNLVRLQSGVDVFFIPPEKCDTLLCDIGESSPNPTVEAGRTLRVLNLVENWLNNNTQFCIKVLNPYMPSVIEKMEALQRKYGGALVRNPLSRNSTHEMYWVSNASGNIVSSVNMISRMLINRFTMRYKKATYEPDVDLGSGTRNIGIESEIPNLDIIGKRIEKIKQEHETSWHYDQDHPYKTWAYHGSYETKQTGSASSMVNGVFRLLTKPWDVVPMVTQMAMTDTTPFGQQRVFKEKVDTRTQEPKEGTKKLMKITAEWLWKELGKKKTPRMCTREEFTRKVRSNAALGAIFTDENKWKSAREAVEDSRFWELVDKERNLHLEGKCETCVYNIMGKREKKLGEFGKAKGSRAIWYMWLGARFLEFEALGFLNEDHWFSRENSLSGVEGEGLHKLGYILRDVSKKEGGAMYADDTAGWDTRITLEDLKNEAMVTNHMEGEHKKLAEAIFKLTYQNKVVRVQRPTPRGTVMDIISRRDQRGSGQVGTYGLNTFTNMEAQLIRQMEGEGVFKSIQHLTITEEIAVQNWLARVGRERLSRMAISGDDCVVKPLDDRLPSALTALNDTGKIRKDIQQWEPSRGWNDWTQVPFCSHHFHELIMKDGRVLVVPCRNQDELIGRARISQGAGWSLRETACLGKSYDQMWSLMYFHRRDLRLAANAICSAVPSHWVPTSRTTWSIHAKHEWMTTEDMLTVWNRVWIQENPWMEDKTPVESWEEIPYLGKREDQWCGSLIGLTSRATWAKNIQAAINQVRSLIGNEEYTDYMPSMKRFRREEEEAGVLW

[13] = target: Luciferin 4-monooxygenase (Photinus pyralis, UniProt P08659); experiment: inhibition of purified Photinus pyralis luciferase – biochemical, luminescence, dose response (AID 1891)
Chain of Luciferin 4-monooxygenase (P08659 whole entry): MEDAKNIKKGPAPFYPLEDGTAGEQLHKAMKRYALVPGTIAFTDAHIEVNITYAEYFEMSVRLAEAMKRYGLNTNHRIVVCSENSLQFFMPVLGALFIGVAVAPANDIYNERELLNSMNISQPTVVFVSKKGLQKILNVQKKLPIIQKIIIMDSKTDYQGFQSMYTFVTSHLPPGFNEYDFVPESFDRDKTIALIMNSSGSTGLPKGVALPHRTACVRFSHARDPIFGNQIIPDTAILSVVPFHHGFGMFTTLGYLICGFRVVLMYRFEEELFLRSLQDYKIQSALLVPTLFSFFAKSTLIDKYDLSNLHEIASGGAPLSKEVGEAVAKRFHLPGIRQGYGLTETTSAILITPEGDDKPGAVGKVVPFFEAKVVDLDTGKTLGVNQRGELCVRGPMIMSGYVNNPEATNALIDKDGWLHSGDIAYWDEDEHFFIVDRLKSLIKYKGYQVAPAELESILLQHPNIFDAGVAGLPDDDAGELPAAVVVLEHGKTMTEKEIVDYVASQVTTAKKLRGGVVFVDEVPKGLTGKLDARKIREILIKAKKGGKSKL

[14] = Luminescence Cell-Based Dose Confirmation HTS to Identify Inhibitors of Platelet Dense Granule Release. [Related pubchem assays: 1663 (Primary HTS), 1678 (Summary of Project)]; assay type: functional
[15] = intracellular Trypanosoma cruzi inhibitors in host cells – cell-based, plate reader, cherry-pick samples, set 3, dose response (AID 651818); assay type: functional;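 also: compounds incubated with infected cells for about four days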

## COc1ccc(C2=Nn3c(nnc3-c3ccco3)SC2)cc1
[1]
  IC50: 9.61 µM (not active)

## COc1cc(OC)c(NS(=O)(=O)c2ccc(Cl)c(C(=O)OC(C)C(=O)N3CCCC3)c2)cc1Cl (centres undefined)
Aminopeptidase N
  IC50: 38.6 µM (active)

## Oc1ccc(C[C@@H]2CN=C(S)N2CCCCC2CCCCC2)cc1
[1]
  IC50: 12.2 µM (not active)
[2]
  AC50: 5.41 µM (active)

## O=C1c2ccc(Br)cc2C(=O)N1c1ccc(Cc2ccncc2)cc1
[1]
  IC50: 4.86 µM (not active)

## COc1ccc(C(CNC(=O)c2cccc(Br)c2)N2CCCC2)cc1 (centres undefined)
[3]
  EC50: 1.68 µM (active)

## CCOC(=O)NN1C(=O)c2ccccc2NC12CCCC2
Aminopeptidase N
  IC50: 32.6 µM (active)

## Cn1c(NCc2ccco2)nc2c1c(=O)n(Cc1ccc(Cl)c(Cl)c1)c(=O)n2C
[1]
  IC50: 4.09 µM (not active)

## Cc1c(O)ccc(C(=O)CN2C(=O)c3ccccc3C2=O)c1O
[1]
  IC50: 7.96 µM (not active)

## O=C1c2ccccc2C(=O)N1CCCCCc1nc(-c2ccccc2)no1
[1]
  IC50: 3.34 µM (not active)

## COc1ccc(C(=O)Nc2cc(C)ccc2NC(=O)COc2ccccc2)cc1
[1]
  IC50: 1.51 µM (not active)

## CS(=O)(=O)N1CCc2cc(-c3csc(NC(=O)Cc4cccs4)n3)ccc21
[4]
  EC50: 586 nM (active)
[5]
  EC50: > 60 µM (not active)
Fatty acid synthase [6]
  IC50: 6.53 µM (active)
Fatty acid synthase [7]
  IC50: 9.27 µM (active)
[8]
  AC50: 27.1 µM (active)
[9]
  AC50: 27.1 µM (active)
[10]
  AC50: 9.65 µM (active)

## O=C(NC1CCCCC1)NC1CCN(C(=S)NCc2ccco2)CC1
Aminopeptidase N
  IC50: 66.3 µM (active)

## Cc1cc(/C=C2\C(=O)NC(=O)N(c3ccccc3)C2=O)c(C)n1-c1ccc(C(=O)O)c(Cl)c1
[11]
  EC50: > 300 µM (not active)
[12]
  EC50: > 300 µM (not active)
Genome polyprotein
  IC50: 63.7 µM (active)

## CCN1CCN(c2ccc(S(=O)(=O)N3CCOCC3)cc2NC(=O)C(C)Oc2cccc(Cl)c2)CC1 (centres undefined)
[3]
  EC50: 5.96 µM (active)

## COc1ccc(C(CNC(=O)CN2C(=O)NC3(CCCC3)C2=O)N(C)C)cc1 (centres undefined)
[3]
  EC50: 3.76 µM (active)

## CCOC(=O)C(=CN=C(N)Nc1nc2ccccc2o1)C(=O)OCC
Aminopeptidase N
  IC50: 79.2 µM (active)

## O=C(NCCc1ccccn1)C(F)(F)C(F)(F)C(F)(F)C(F)(F)C(F)(F)C(F)F
[13]
  EC50: > 112 µM (not active)
[14]
  EC50: > 112 µM (not active)
[3]
  EC50: 4.73 µM (active)

## COc1ccc(C(=O)N2c3cc4c(cc3C(C)=CC2(C)C)OCO4)cc1
[1]
  IC50: 6.36 µM (not active)

## Cc1ccc(S(=O)(=O)Oc2ccccc2C=C2C(=O)NC(=O)NC2=O)cc1
Genome polyprotein
  IC50: 36.8 µM (active)

## O=C(O)CN1C(=O)/C(=C\c2ccccc2OCc2ccccc2)SC1=S
Genome polyprotein
  IC50: 35.8 µM (active)

## CCOc1cc(/C=N/NC2=NC(=O)C(CC(=O)O)S2)ccc1OS(=O)(=O)c1ccc(C)cc1 (centres undefined)
Aminopeptidase N
  IC50: 47.8 µM (active)

## Cc1ccc(S(=O)(=O)Nc2ccc3c(c2)CC(=O)N([C@@H](C)CO)C[C@@H](C)[C@@H](CN(C)Cc2ccc(C(F)(F)F)cc2)O3)cc1
[15]
  AC50: 2.03 µM (active)

## C[C@H]1CN([C@@H](C)CO)C(=O)Cc2cc(NC(=O)c3ccncc3)ccc2O[C@H]1CN(C)Cc1ccc(-c2ccccc2)cc1
[15]
  AC50: 1.63 µM (active)

## C[C@H]1CN([C@@H](C)CO)C(=O)Cc2cc(NC(=O)Cc3cn(C)c4ccccc34)ccc2O[C@H]1CN(C)Cc1ccc(C(F)(F)F)cc1
[15]
  AC50: 1.81 µM (active)

## C[C@H](CO)N1C[C@H](C)[C@H](CN(C)S(=O)(=O)c2ccccc2)Oc2ccc(NC(=O)Nc3ccc(C(F)(F)F)cc3)cc2C1=O
[15]
  AC50: 1.62 µM (active)

## C[C@@H]1CN([C@H](C)CO)C(=O)Cc2cc(N(C)C)ccc2O[C@H]1CN(C)Cc1ccc2c(c1)OCO2
[15]
  AC50: 6.22 µM (active)

## C[C@H]1CN([C@@H](C)CO)C(=O)Cc2cc(NC(=O)C3CC3)ccc2O[C@@H]1CN(C)Cc1ccc(C(=O)Nc2ccccc2N)cc1
[15]
  AC50: 3.59 µM (active)

## Cc1ccc(/C=N\NC(=O)C2COc3cc4ccccc4cc3O2)o1 (centres undefined)
[3]
  EC50: 1.88 µM (active)
